Data published in US10752631B2, “Heterocyclic compounds as FGFR inhibitors” (GUANGZHOU INNOCARE PHARMA TECH CO., LTD., priority 2016, dated 2020).

Columns and labels:
[1] = target: human recombinant FGFR2 catalytic structural domain protein (amino acids 400-821) (Homo sapiens (Human), UniProt P21802); assay: FGFR2 activity inhibition test (HTRF kinase assay); type: biochemical; conditions: 50 μM ATP
[2] = target: human recombinant FGFR3 catalytic structural domain protein (amino acids 399-806) (Homo sapiens (Human), UniProt P22607); assay: FGFR3 activity inhibition test (HTRF kinase assay); type: biochemical; conditions: 90 μM ATP
Sequence of human recombinant FGFR3 catalytic structural domain protein (amino acids 399-806) (P22607 399-806): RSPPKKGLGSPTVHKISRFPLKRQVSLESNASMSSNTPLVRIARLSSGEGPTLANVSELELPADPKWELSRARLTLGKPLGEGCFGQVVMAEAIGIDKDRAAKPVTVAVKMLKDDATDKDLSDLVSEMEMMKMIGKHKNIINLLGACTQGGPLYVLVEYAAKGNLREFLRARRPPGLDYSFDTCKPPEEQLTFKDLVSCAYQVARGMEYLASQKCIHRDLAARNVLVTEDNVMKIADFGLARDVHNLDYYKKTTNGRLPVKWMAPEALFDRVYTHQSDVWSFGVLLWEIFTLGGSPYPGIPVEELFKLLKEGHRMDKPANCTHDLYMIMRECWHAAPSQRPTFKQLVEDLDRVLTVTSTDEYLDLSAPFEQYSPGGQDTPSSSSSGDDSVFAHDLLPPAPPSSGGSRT

Sequence of human recombinant FGFR2 catalytic structural domain protein (amino acids 400-821) (P21802 400-821): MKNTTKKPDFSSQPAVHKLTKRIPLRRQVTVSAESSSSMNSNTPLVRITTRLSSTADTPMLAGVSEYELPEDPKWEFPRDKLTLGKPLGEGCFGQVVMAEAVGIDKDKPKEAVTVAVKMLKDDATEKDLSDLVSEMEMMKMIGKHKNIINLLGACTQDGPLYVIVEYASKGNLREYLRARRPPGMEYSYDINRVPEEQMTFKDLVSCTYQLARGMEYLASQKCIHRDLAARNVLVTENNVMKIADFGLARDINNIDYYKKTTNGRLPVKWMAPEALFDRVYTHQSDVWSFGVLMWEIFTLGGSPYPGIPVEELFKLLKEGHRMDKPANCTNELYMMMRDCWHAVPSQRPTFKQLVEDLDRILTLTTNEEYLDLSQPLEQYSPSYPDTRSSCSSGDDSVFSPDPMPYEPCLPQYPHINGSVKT

Compound | IC50 [1] | IC50 [2]
C#CC(=O)N1CC[C@@H](c2nc(C#Cc3cc(OC)cc(OC)c3)c3c(N)nccn23)C1 (stereo in doubt) [Compound 8, 1-((3,5-Dimethoxyphenyl)ethynyl)-3-(1-propynoylpyrrolidin-3-yl)imidazo[1,5-a]pyrazin-8-amine] | < 50 nM | 50 to 500 nM
C/C=C/C(=O)N1CC(c2nc(C#Cc3cc(OC)cc(OC)c3)c3c(N)nccn23)C1 [Compound 11, (E)-1-((3,5-Dimethoxyphenyl)ethynyl)-3-(1-but-2-enoylazacyclobutan-3-yl)imidazo[1,5-a]pyrazin-8-amine] | 50 to 500 nM | 50 to 500 nM
CC#CC(=O)N1CC[C@@H](c2nc(C#Cc3cc(OC)cc(OC)c3)c3c(N)nccn23)C1 [Compound 5, (R)-1-((3,5-Dimethoxyphenyl)ethynyl)-3-(1-butan-2-ynoylpyrrolidin-3-yl)imidazo[1,5-a]pyrazin-8-amine] | < 50 nM | < 50 nM
CC#CC(=O)N1CC(c2nc(C#Cc3cc(OC)cc(OC)c3)c3c(N)nccn23)C1 [Compound 12, 1-((3,5-Dimethoxyphenyl)ethynyl)-3-(1-but-2-ynoylazacyclobutan-3-yl)imidazo[1,5-a]pyrazin-8-amine] | 50 to 500 nM | 50 to 500 nM
C/C=C/C(=O)N1CC[C@@H](c2nc(C#Cc3cc(OC)cc(OC)c3)c3c(N)nccn23)C1 [Compound 7, (E)-1-((3,5-Dimethoxyphenyl)ethynyl)-3-(1-butan-2-enoylpyrrolidin-3-yl)imidazo[1,5-a]pyrazin-8-amine] | < 50 nM | < 50 nM
COc1cc(C#Cc2nc(C3CCN(C(=O)/C=C/CN(C)C)C3)n3ccnc(N)c23)cc(OC)c1 (centres unmarked) [Compound 10] | < 50 nM | < 50 nM
CC#CC(=O)N1CCC(c2nc(C#Cc3cc(OC)cc(OC)c3)c3c(N)nccn23)C1 (centres unmarked) [Compound 9, 1-((3,5-Dimethoxyphenyl)ethynyl)-3-(1-butan-2-ynoylpyrolidin-3-yl)imidazo[1,5-a]pyrazin-8-amine] | < 50 nM | 50 to 500 nM
